From PubChem BioAssay AID2060624 (Molecular Pharmacology Branch, DTP, NCI, 2025)
pIC50: −log10 of the molar value.

Test system: 217524-143-R1-J4-PDC spheroids with HUVEC/MSC, viability
Assay: Anticancer human tumor 217524-143-R1-J4-PDC patient-derived pancreatic carcinoma cell line growth inhibition [CLK]
Conditions: for pIC50: curve of first compound; for viability, T/C: stronger effect = lower value
How it was run: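 Multi-cell-type spheroids combined patient-derived tumor cells with HUVEC endothelial cells and human mesenchymal stem cells. Paired agents were dosed in half-log steps down from about clinical Cmax, or from 10 microM where Cmax was unknown.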

[1] = second compound 0.0316 µM, first compound 0.0316 µM
[2] = second compound 0.0316 µM, first compound 0.1 µM
[3] = second compound 0.1 µM, first compound 0.0316 µM
[4] = second compound 0.1 µM, first compound 0.1 µM
[5] = second compound 0.316 µM, first compound 0.0316 µM
[6] = second compound 0.316 µM, first compound 0.1 µM
[7] = second compound 1 µM, first compound 0.0316 µM
[8] = second compound 1 µM, first compound 0.1 µM
[9] = second compound 3.16 µM, first compound 0.0316 µM
[10] = second compound 3.16 µM, first compound 0.1 µM
[11] = second compound 10 µM, first compound 0.0316 µM
[12] = second compound 10 µM, first compound 0.1 µM
[13] = second compound 0.0316 µM, first compound 0.316 µM
[14] = second compound 0.0316 µM, first compound 1 µM
[15] = second compound 0.0316 µM, first compound 3.16 µM
[16] = second compound 0.0316 µM, first compound 10 µM
[17] = second compound 0.1 µM, first compound 0.316 µM
[18] = second compound 0.1 µM, first compound 1 µM
[19] = second compound 0.1 µM, first compound 3.16 µM
[20] = second compound 0.1 µM, first compound 10 µM
[21] = second compound 0.316 µM, first compound 0.316 µM
[22] = second compound 0.316 µM, first compound 1 µM
[23] = second compound 0.316 µM, first compound 3.16 µM
[24] = second compound 0.316 µM, first compound 10 µM
[25] = second compound 1 µM, first compound 0.316 µM
[26] = second compound 1 µM, first compound 1 µM
[27] = second compound 1 µM, first compound 3.16 µM
[28] = second compound 1 µM, first compound 10 µM
[29] = second compound 3.16 µM, first compound 0.316 µM
[30] = second compound 3.16 µM, first compound 1 µM
[31] = second compound 3.16 µM, first compound 3.16 µM
[32] = second compound 3.16 µM, first compound 10 µM
[33] = second compound 10 µM, first compound 0.316 µM
[34] = second compound 10 µM, first compound 1 µM
[35] = second compound 10 µM, first compound 3.16 µM
[36] = second compound 10 µM, first compound 10 µM
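Note: spheroids exposed to agents for seven days before reading.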
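Throughout, for viability, T/C: 100% = DMSO vehicle control viability.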

`Cn1ncnc1[C@H]1c2n[nH]c(=O)c3cc(F)cc(c23)N[C@@H]1c1ccc(F)cc1` + CNC(=O)c1ccc(Nc2nc(OC3CCCC3)c3c(-c4ccc5nc(C)oc5c4)c[nH]c3n2)c(OC)c1 showed a pIC50 (second compound 0.0316 µM) of less than 7.00, a pIC50 (second compound 0.1 µM) greater than 9.50 and a pIC50 (second compound 0.316 µM) greater than 9.50. The pIC50 (second compound 1 µM) was greater than 9.50, the pIC50 (second compound 3.16 µM) was greater than 9.50 and the pIC50 (second compound 10 µM) was greater than 9.50. The viability, T/C (second compound 0.0316 µM, first compound 0.000316 µM) was 101%, the viability, T/C (second compound 0.0316 µM, first compound 0.001 µM) was 68.8% and the viability, T/C (second compound 0.0316 µM, first compound 0.00316 µM) was 86.1%. It also gave a viability, T/C (second compound 0.0316 µM, first compound 0.01 µM) of 85%, a viability, T/C [1] of 83.4% and a viability, T/C [2] of 75.5%. For the same compound, the viability, T/C (second compound 0.1 µM, first compound 0.000316 µM) was 43.6%, the viability, T/C (second compound 0.1 µM, first compound 0.001 µM) was 44.8% and the viability, T/C (second compound 0.1 µM, first compound 0.00316 µM) was 41.6%. It also gave a viability, T/C (second compound 0.1 µM, first compound 0.01 µM) of 37.5%, a viability, T/C [3] of 38.6% and a viability, T/C [4] of 31.4%. It also gave a viability, T/C (second compound 0.316 µM, first compound 0.000316 µM) of 34.5%, a viability, T/C (second compound 0.316 µM, first compound 0.001 µM) of 42.8% and a viability, T/C (second compound 0.316 µM, first compound 0.00316 µM) of 34.1%. The viability, T/C (second compound 0.316 µM, first compound 0.01 µM) was 39%, the viability, T/C [5] was 39.9% and the viability, T/C [6] was 37.3%. The viability, T/C (second compound 1 µM, first compound 0.000316 µM) was 23.3%, the viability, T/C (second compound 1 µM, first compound 0.001 µM) was 32.8% and the viability, T/C (second compound 1 µM, first compound 0.00316 µM) was 30.6%. For the same compound, the viability, T/C (second compound 1 µM, first compound 0.01 µM) was 23.3%, the viability, T/C [7] was 21.3% and the viability, T/C [8] was 25.8%. The viability, T/C (second compound 3.16 µM, first compound 0.000316 µM) was 28.6%, the viability, T/C (second compound 3.16 µM, first compound 0.001 µM) was 23.7% and the viability, T/C (second compound 3.16 µM, first compound 0.00316 µM) was 27.2%. For the same compound, the viability, T/C (second compound 3.16 µM, first compound 0.01 µM) was 23.2%, the viability, T/C [9] was 24.4% and the viability, T/C [10] was 23.6%. The viability, T/C (second compound 10 µM, first compound 0.000316 µM) was 29%, the viability, T/C (second compound 10 µM, first compound 0.001 µM) was 25.5% and the viability, T/C (second compound 10 µM, first compound 0.00316 µM) was 24.7%. The viability, T/C (second compound 10 µM, first compound 0.01 µM) was 24.6%, the viability, T/C [11] was 24.3% and the viability, T/C [12] was 21.2%.

In the case of `Nc1ccn(C2OC(CO)C(O)C2(F)F)c(=O)n1` (stereo unspecified) + CNC(=O)c1ccc(Nc2nc(OC3CCCC3)c3c(-c4ccc5nc(C)oc5c4)c[nH]c3n2)c(OC)c1, the pIC50 (second compound 0.0316 µM) was 7.33, the pIC50 (second compound 0.1 µM) was greater than 7.50 and the pIC50 (second compound 0.316 µM) was greater than 7.50. It also gave a pIC50 (second compound 1 µM) greater than 7.50, a pIC50 (second compound 3.16 µM) greater than 7.50 and a pIC50 (second compound 10 µM) greater than 7.50. The viability, T/C [1] was 60.1%, the viability, T/C [2] was 31% and the viability, T/C [13] was 25.2%. It also gave a viability, T/C [14] of 29.9%, a viability, T/C [15] of 30.4% and a viability, T/C [16] of 25.1%. It also gave a viability, T/C [3] of 35.3%, a viability, T/C [4] of 28.8% and a viability, T/C [17] of 20.8%. The viability, T/C [18] was 33.2%, the viability, T/C [19] was 29% and the viability, T/C [20] was 28.1%. For the same compound, the viability, T/C [5] was 28.9%, the viability, T/C [6] was 25.1% and the viability, T/C [21] was 18.5%. It also gave a viability, T/C [22] of 23.5%, a viability, T/C [23] of 20.6% and a viability, T/C [24] of 21.3%. It also gave a viability, T/C [7] of 24.8%, a viability, T/C [8] of 17.1% and a viability, T/C [25] of 13.6%. It also gave a viability, T/C [26] of 19.9%, a viability, T/C [27] of 13.3% and a viability, T/C [28] of 14.5%. For the same compound, the viability, T/C [9] was 21.8%, the viability, T/C [10] was 18.1% and the viability, T/C [29] was 11.2%. The viability, T/C [30] was 13.5%, the viability, T/C [31] was 14.3% and the viability, T/C [32] was 11.6%. The viability, T/C [11] was 23.4%, the viability, T/C [12] was 18.6% and the viability, T/C [33] was 12.8%. It also gave a viability, T/C [34] of 10.8%, a viability, T/C [35] of 13.8% and a viability, T/C [36] of 11.8%.

`O=c1[nH]cc(F)c(=O)[nH]1` + CNC(=O)c1ccc(Nc2nc(OC3CCCC3)c3c(-c4ccc5nc(C)oc5c4)c[nH]c3n2)c(OC)c1 gave a pIC50 (second compound 0.0316 µM) of 6.11, a pIC50 (second compound 0.1 µM) greater than 7.50 and a pIC50 (second compound 0.316 µM) greater than 7.50. The pIC50 (second compound 1 µM) was greater than 7.50, the pIC50 (second compound 3.16 µM) was greater than 7.50 and the pIC50 (second compound 10 µM) was greater than 7.50. The viability, T/C [1] was 79.9%, the viability, T/C [2] was 86.3% and the viability, T/C [13] was 61.6%. For the same compound, the viability, T/C [14] was 48.3%, the viability, T/C [15] was 30.7% and the viability, T/C [16] was 29.1%. For the same compound, the viability, T/C [3] was 40.4%, the viability, T/C [4] was 37.5% and the viability, T/C [17] was 39.4%. It also gave a viability, T/C [18] of 35.6%, a viability, T/C [19] of 30% and a viability, T/C [20] of 26.7%. It also gave a viability, T/C [5] of 32.3%, a viability, T/C [6] of 36.7% and a viability, T/C [21] of 31.5%. It also gave a viability, T/C [22] of 29.9%, a viability, T/C [23] of 29.1% and a viability, T/C [24] of 21.5%. It also gave a viability, T/C [7] of 29.6%, a viability, T/C [8] of 26.7% and a viability, T/C [25] of 24.8%. For the same compound, the viability, T/C [26] was 21.9%, the viability, T/C [27] was 20.2% and the viability, T/C [28] was 13.9%. For the same compound, the viability, T/C [9] was 27%, the viability, T/C [10] was 30.4% and the viability, T/C [29] was 21.7%. The viability, T/C [30] was 23.4%, the viability, T/C [31] was 18.5% and the viability, T/C [32] was 13.4%. It also gave a viability, T/C [11] of 23.2%, a viability, T/C [12] of 27.4% and a viability, T/C [33] of 22.4%. For the same compound, the viability, T/C [34] was 22.6%, the viability, T/C [35] was 17.9% and the viability, T/C [36] was 13.1%.
